Experimental data: patent US20250034191A1, “LIGININ FLOWER PRODUCTION AND USES THEREOF” (SILICYCLE INC., priority 2021, published 2025)
“And” between values parts separate entries of the source, which are not always exact repeats. Equal entries are not always repeated.

Legend:
S. typhimurium TA 98 = test: Ames test (OECD 471), plate incorporation assay; type: cell-based, Salmonella typhimurium; conditions: TA 98 with S9, positive control, 3.0 μg/plate (Table 3)
Excerpt: The purpose of the test is to investigate the possible genotoxic activity exerted by the tested substance in bacterial strains of Salmonella typhimurium, with and without metabolic activation with S9.
The Ames test allows for detecting the induction of point mutations in nucleotide bases, such as deletions, insertions, transversions and frameshift mutations by using modified Salmonella typhimurium strains. These strains carry a defective gene in the histidine operon making them auxotroph for this amino acid (mutants His-which require histidine in the culture medium for growth). The method guiding principle is based on the reverse mutation phenomenon by which bacteria exposed to a mutagenic substance may change back and become again prototroph concerning histidine (His+). The bacterial cells in growth phase are exposed to different concentrations of the test agent and mutagenic activity is determined by the capability of the test substance to induce a significant increase in the number of revertant (histidine-independent mutant, His+) in comparison to the spontaneous reversions occurring in the control cultures.
Some chemical agents are not directly mutagen but become so by following transformation and metabolic activation occurring in the organism by liver enzyme activity. To study this genotoxic effect, rat liver microsomal fraction (S9) has been added. The employ of S9 allows identifying substances that act as indirect mutagen.
In this assay, 5 bacterial strains TA 1535, TA100, TA 102, TA 1537 and TA98 have been used and their characteristics are illustrated in Table 3. Each tester strains contains a different type of mutation in the histidine operon. TA 1535 and TA 100 strains are specific testers for mutagens causing base substitutions. The TA 102 strain is used to detect mutagens that require an intact excision repair system. […] Furthermore, the TA 102 strain contains the multicopy plasmid, pAQ1, which confers tetracycline resistance. The frameshift tester strains used are TA 1537 and TA 98. TA 98, like TA 100, is ampicillin resistant. All S. typhimurium strains carry, along with the defect in the histidine gene (His−), a deep rough (rfa) character, a mutation that causes partial loss of the lipopolysaccharide barrier that coats the surface of the bacteria and increases permeability to large molecules. […] For technical reason, the deletion excising the uvrB gene extends through the bio gene and, consequently, these bacteria also require biotin for growth.
The study was performed using the plate incorporation assay with and without S9 mix. S9 is composed by Aroclor 1254 induced rat liver supplemented with glucose-6-phosphate and NADP (Moltox®). The experiment was performed in duplicate Petri dishes containing basal medium and a further layer of medium containing histidine+biotin, the Salmonella typhimurium suspension, the sample to be tested at different concentrations and, if the case of metabolic activation, a 5% S9 mix. Dishes were incubated for 48 hours at 37° C. When the incubation time was over, a basal bacterial growth was achieved limited by the amount of histidine in the medium and in add the growth of revertant colonies (his+). In particular, the basic number of revertant colonies is steady, different for each strain, due to the spontaneous mutation rate of the bacterial strain. If an increase in the number of revertant colonies is observed, this is proportional to the tested sample concentration and to its mutagen capability. […]

NADPH-oxidase complex = conditions: Zhang, Yi et al., American Journal of Hypertension, 2005; cited from earlier work
secreted IL6 = test: Interleukin 6 (IL6) secretions in coculture; type: cell-based, human
Excerpt: To assess the effect of the test element on inflammation, we assayed extracellular concentrations of secreted IL6. The results were normalized by the number of fibroblasts and represented as a percentage of the solvent condition DMSO (FIG. 13).

[1] = system: reconstructed artificial human skin model (normal human epidermal keratinocytes); test: In vitro skin irritation, reconstructed human epidermis (OECD 439), MTT; type: cell-based; conditions: 42 h treatment, 42 hours incubation
Method: The purpose of this test is to evaluate if the tested material is, or is not a skin irritant, according to the method described in OECD 439. This method uses the human artificial skin model (EPISKIN™, EpiDerm™, Episkin™ RHE) to assess the skin irritation of chemical substances, mixtures and to properly label them to this respect if applicable.
The test is based on the evaluation of cell survival after the exposure to the substance through MTT assay and by comparison with epidermis treated with phosphate buffer only (negative control). The MTT method is a colorimetric assay that allows to determine the percentage of cells alive within an in vitro cultured tissue. This assay is based on the ability of the mitochondrial succinate dehydrogenase enzyme to metabolize the nitro-blue tetrazolium salt, giving a colored compound that can be measured by spectrophotometer reading. […]
Epidermis units are treated with 1 mg/ml MTT solution (3-[4,5-dimethylthiazol-2-yl]-2,5-diphenyl tetrazolium bromide) for 3 h at 37° C. […] 2 aliquots of every sample are transferred to a 96 well plate for the reading. The absorbance is read at the wavelength of 570 nm with a colorimeter (Tecan model Infinite 200 PRO) equipped with a microplate reader.

SMILES: Nc1ccc2cc3ccccc3cc2c1 [2AAn, 2-aminoanthracene]
- Statistically significant vs solvent control (p < 0.05) (S. typhimurium TA 98): yes
- revertant, mean (S. typhimurium TA 98): 3320 UFC/plate
- revertant, single replicates (S. typhimurium TA 98): 3353 UFC/plate and 3291 UFC/plate and 3316 UFC/plate

SMILES: COc1cc(C(C)=O)ccc1O [Apocynin, apocynin]
- inhibition of the NADPH-oxidase complex (NADPH-oxidase complex): effective inhibitor

SMILES: C[C@@H]1C[C@H]2[C@@H]3CCC4=CC(=O)C=C[C@]4(C)[C@@]3(F)[C@@H](O)C[C@]2(C)[C@@]1(O)C(=O)CO [Dexamethasone]
- IL6 secretions, normalized by number of fibroblasts (secreted IL6; D3, anti-inflammatory reference): 25%
- IL6 secretions, normalized by number of fibroblasts (secreted IL6; D6, compared to the coculture control): 85%

SMILES: CCCCCCCCCCCCOS(=O)(=O)[O-].[Na+] [SLS 5%]
- Classification [1]: I (Irritant)
- % mean cell viability (ds) ([1]; tested undiluted): 0.93%
